Data reported in a melting point compilation (Tetko et al.; mined from patent text by program, amines drawn as free bases though some values may be those of a salt).

First: O=[N+]([O-])c1cccc(-c2ncc[nH]2)c1
Second: O=[N+]([O-])c1ccc(-n2cncn2)cc1
The melting point of the first is lower: 193 to 194 °C for the first, 198 °C for the second.

Compared with `O=C(CC(=O)c1ccc(C(=O)CC(=O)c2ccccc2)cc1)c1ccccc1`, `O=C(O)c1ccc(Oc2ccccc2C(=O)O)cc1` is higher in melting point: 175 to 177 °C for the first, 220 to 223 °C for the second.

First: CS(=O)(=O)c1ccc(-c2cc(Br)nc(C(F)(F)F)c2-c2ccc(F)cc2)cc1
Second: CC1(C)OC(c2ccc(S(C)(=O)=O)cc2)=C(c2cc(F)cc(F)c2)C1=O
The melting point of the first is higher: 188 to 189 °C for the first, 141 to 142 °C for the second.

First: O=c1nc(-c2ccc(Br)cc2)c2c(=O)nc(-c3ccc(Br)cc3)c1=2
Second: CCOC(=O)C=CC(=O)c1ccc(-c2ccc(F)cc2)cc1
The melting point of the first is higher: greater than 400 °C for the first, 115 to 117 °C for the second.

First: ClCCOc1ccc(Cl)c2[nH]cc(Cl)c12
Second: Oc1cc(Cl)c(-n2cnnn2)cc1Oc1ccc(Cl)cc1Cl
The melting point of the first is lower: 106 to 108 °C for the first, 147 to 148 °C for the second.

First: CC(C(=O)O)c1ccc2c(-c3ccc(Cl)cc3)noc2c1 (configuration not stated)
Second: CC(O)(CCCl)c1ccc(-c2cccc(Cl)c2)cc1 (configuration not stated)
The melting point of the first is higher: 176 to 179 °C for the first, 98 to 100 °C for the second.

First: O=C(O)/C=C/c1ccc(N2CCCC2)nc1
Second: ClCc1nn(-c2ccccc2)c2c1CCCC2
The melting point of the first is higher: 170 °C for the first, 100 °C for the second.

First: CC(CSS)C(=O)Nc1ncccc1C(=O)O (configuration not stated)
Second: COC(=O)c1nc2cccc(C)c2c(O)c1C(=O)OC
The melting point of the first is lower: 95 to 100 °C for the first, 167 to 168 °C for the second.

Compared with `CC(=O)N[C@H]1C[C@H](C)N(C(=O)OC(C)(C)C)C1`, `CC(C)(C)OC(=O)NC(C(=O)O)C1(O)CCSC1` (configuration not stated) is higher in melting point: 108 to 110 °C for the first, 116 to 118 °C for the second.

First: CC1=Cc2ccc(Cl)cc2C(c2ccc(N)c(C)c2)=NN1C(=O)NC1CC1
Second: CCOC(=O)Nc1ccc(NCc2coc3ccc(F)cc23)cc1N
The melting point of the first is higher: 233 to 236 °C for the first, 150 to 151 °C for the second.

First: CCOC(=O)c1c(C)cc2cnc(-c3ccccc3C)nc2c1C
Second: COc1cc(Nc2nccc(-c3cccc4ccccc34)n2)cc(OC)c1OC
The melting point of the first is lower: 56 to 57 °C for the first, 130 to 133 °C for the second.

First: CC(=O)N1CCC(O)(C(=O)c2ccc(F)cc2)CC1
Second: CC(C)(C)OC(=O)N1CCC(C(=O)c2ccccc2)CC1
The melting point of the first is higher: 146 to 149 °C for the first, 91 to 93 °C for the second.

Compared with `CSc1nc(NC2CCCCC2)c2ccnc-2[nH]1`, `O=c1[nH]cnc2nn(C3CCCCC3)cc12` is higher in melting point: 189 to 190 °C for the first, 287 to 289 °C for the second.

First: COc1nc2cc([N+](=O)[O-])c(C)c(C(=O)N(C)C)c2nc1OC
Second: CCNC(=O)n1nc(Oc2ccc([N+](=O)[O-])cc2)cc1C
The melting point of the first is higher: 138 to 141 °C for the first, 105 to 107 °C for the second.

First: Cn1c(-c2cccs2)nnc1S(C)=O (configuration not stated)
Second: O=C(NCc1nc(O)cc(O)n1)c1cccs1
The melting point of the first is lower: 105 to 107 °C for the first, 270 to 275 °C for the second.

Compared with `CCCCOC(=O)Nc1nc(C(=NOC2CCCC2)C(=O)OC)ns1`, `CCCOc1nc(Nc2ccc(F)c(Cl)c2)nc(NC2CCN(S(C)(=O)=O)CC2)n1` is higher in melting point: 115 to 118 °C for the first, 199 to 201 °C for the second.

First: CCC(O)c1ccc(Cl)c2nc3n(c12)CCCN3c1c(Br)cc(OC)cc1Br (configuration not stated)
Second: COc1cnn(-c2cccc(CBr)c2)c(=O)c1OC
The melting point of the first is higher: 138 to 140 °C for the first, 67 to 69 °C for the second.

First: CCCCCCCCCCCCCCCCOc1ccc(C(=O)O)o1
Second: CCCCCCCCOc1ccc2nc(C(=O)NCC(=O)O)c(O)cc2c1
The melting point of the first is lower: 118 to 119 °C for the first, 153 to 155 °C for the second.

First: Cc1c(Cc2cccc(C(F)(F)F)c2)oc2c(-c3cccc(C(=O)NCCC#N)c3)cccc12
Second: COc1ccc(CC(S)C(N)=O)cc1C(=O)NCc1ccc(C(F)(F)F)cc1 (configuration not stated)
The melting point of the first is lower: 158 to 159 °C for the first, 159 to 161 °C for the second.

First: CC(=O)Nc1nc2ccc(S(=O)(=O)n3c(COC(C)(C)C(=O)O)cc4cc(C(F)(F)F)ccc43)cc2s1
Second: Cc1cc(C(=O)c2ccccc2)ccc1NC(=O)C(C)(O)C(F)(F)F (configuration not stated)
The melting point of the first is higher: 144 to 146 °C for the first, 123 to 124 °C for the second.

First: C=CCNc1cc(C)nc2c(-c3ccccc3)n[nH]c12
Second: Cn1nc(-c2ccccc2)c2c(=O)[nH]c(N)nc21
The melting point of the first is lower: 92 to 105 °C for the first, greater than 300 °C for the second.

Compared with `O=C(NCC1CN(c2ccc(N3CCOCC3=O)cc2)C(=O)O1)c1ccc(Cl)s1` (configuration not stated), `CC(=S)NCC1CN(c2ccc(NC=O)c(F)c2)C(=O)O1` (configuration not stated) is lower in melting point: 227 °C for the first, 177 to 178 °C for the second.

Compared with `CS(=O)Cc1ccc2oc([N+](=O)[O-])c(-c3ccccc3)c2c1` (configuration not stated), `N#Cc1ccc2nc3sc(-c4ccccc4)cc3c(=O)n2c1` is higher in melting point: 162 to 165 °C for the first, 349 to 351 °C for the second.

First: CN(C)Cc1nc(CSCCNC(=C[N+](=O)[O-])NCC(O)c2ccccc2)cs1 (configuration not stated)
Second: CC(C)(O)Cc1cccc2ccccc12
The melting point of the first is higher: 100 to 101 °C for the first, 47 to 48 °C for the second.

First: Sc1nsnc1C12CN3CC1C2C3
Second: COC(=O)c1cc(C23CC4CC(CC(C4)C2)C3)c(OC)cc1F
The melting point of the first is higher: 205 to 207 °C for the first, 82 to 88 °C for the second.

First: CCN(CC)CCN1CCN(CCCN2CCCCC2)C1=C(C#N)C#N
Second: CCCCn1c(=O)n(CCCC)c2cc3c(N4CCN(C(=O)Nc5ccc(Oc6ccccc6)cc5)CC4)ncnc3cc21
The melting point of the first is lower: 78 to 80 °C for the first, 134 to 136 °C for the second.

First: O=C1CC(=O)/C(=C/c2ccccc2)N1
Second: O=C1Nc2ccccc2CO1
The melting point of the first is higher: 186 to 187 °C for the first, 118 to 119 °C for the second.

First: COc1ccc(C(=O)Nc2ccc3ccc(Oc4cccc(C)c4)nc3n2)cc1
Second: COc1ccc2c(c1)c(CC(N)=O)c(C)n2Cc1ccc(OCc2ccccc2)cc1
The melting point of the first is higher: 160 °C for the first, 155 to 157 °C for the second.

First: C=CCSC1=C(C(=O)OCc2ccc([N+](=O)[O-])cc2)N2C(=O)[C@@H]([C@H](C)O)[C@H]2C1
Second: CCOC(=O)CCCn1cc(-c2cccnc2)c2cc([N+](=O)[O-])ccc21
The melting point of the first is higher: 137 to 139 °C for the first, 76 to 78 °C for the second.

First: COc1ccc2[nH]c(C)c(/C=C/C(=O)c3ccncc3)c2c1
Second: CCn1c(N)c(C(N)=O)c(=O)c2ccc(-c3ccncc3)cc21
The melting point of the first is lower: 256 to 259 °C for the first, greater than 300 °C for the second.

Compared with `Nc1nc(Cl)c(NC=O)c(N[C@H]2C=C[C@@H](CO)C2)n1`, `N#CC1CN1C(=O)c1ccc(Cl)nn1` (configuration not stated) is lower in melting point: 174 to 176 °C for the first, 109 to 115 °C for the second.

Compared with `CC(=O)Nc1ccc(OC(C)(C)C(=O)c2ccccc2)cc1`, `C=C(C)COc1ccc(C(=O)c2ccccc2)cc1` is lower in melting point: 141 to 142 °C for the first, 85 to 86.5 °C for the second.

First: COc1ccc(S(=O)(=O)N2c3ccc(Cl)cc3C(O)(c3ccccc3Cl)C2C(=O)N2CCN(C)CC2)cc1OC (configuration not stated)
Second: COc1cc2ncnc(N3CCN(C(=O)Nc4ccc(-n5cccc5)nc4)CC3)c2cc1OC
The melting point of the first is lower: 120 °C for the first, 252 to 254 °C for the second.

First: CCN1C(=O)C(C)(C)c2ccc(C(=O)Nc3ccccc3)cc21
Second: CNC(=O)c1cccc(NC(=O)COc2ccc3ccccc3c2)c1
The melting point of the first is higher: 227 to 230 °C for the first, 174 °C for the second.

Going from `CCS(=O)(=O)Nc1cc(-c2nsc(C(F)(F)F)c2Cl)c(Cl)cc1Cl` to `CNc1c(F)cc2c(=O)c(C(=O)O)cn(-c3cc(N)c(F)cc3Cl)c2c1Cl`, the melting point rises from 135 °C to 273 °C.

First: CCOC(=O)N1CCN(c2ccc(-n3cnn(C(CC)C(O)c4ccc(Cl)cc4)c3=O)cn2)CC1 (configuration not stated)
Second: NC(=O)c1ccccc1N1CCN(CC[C@H]2OCCc3ccccc32)CC1
The melting point of the first is higher: 196 °C for the first, 157 to 158 °C for the second.

First: COc1ccc(C2=NN(c3ccc(C4=NNC(=O)CC4C)cc3)C(=O)C3CC=CCC23)cc1Cl (configuration not stated)
Second: COc1ccc(C2=NN(CC(=O)O)C(=O)[C@H]3CC=CC[C@@H]23)cc1OC (relative stereo)
The melting point of the first is higher: 198 to 201 °C for the first, 178 to 180 °C for the second.

`NS(=O)(=O)c1ccc(-c2c(-c3ccccc3)noc2COc2ccc(C(=O)O)cc2)cc1` and `NC(=O)c1c(Cl)c(-c2ccccc2)n2c1CN(S(=O)(=O)Nc1ccccc1)CC2` cannot be ordered by melting point: 206 to 208 °C for the first, 207 to 208 °C for the second.

Compared with `Cc1cc(Cl)ccc1NC=NO`, `CON=C(C(=O)OC)c1cccc(O)c1` is lower in melting point: 171 to 172 °C for the first, 39.5 to 40.5 °C for the second.

First: COc1ccc(Br)cc1C1C2CC3CC(C2)CC1C3 (configuration not stated)
Second: COc1ccc(C(C)=Cc2ccncc2)c2c1OC1(CCCC1)C2
The melting point of the first is higher: 140 to 141 °C for the first, 85 to 87 °C for the second.

First: COCCCn1nnnc1-c1cc(-c2cc(C(C)C)ccc2OC)c(OCc2ccccc2)cc1OCc1ccccc1
Second: COc1cc(COc2nn(C)cc2C(C)=O)ccc1OCc1nc(-c2ccccc2)oc1C
The melting point of the first is lower: 102 to 104 °C for the first, 170 to 171 °C for the second.

First: COCCNc1cc(-c2c(-c3cccc(C)c3)nc3cccnn23)ccn1
Second: N#Cc1cnc2sc(C#Cc3ccncc3)cc2c1Nc1ccc2[nH]ccc2c1
The melting point of the first is lower: 99 to 100 °C for the first, greater than 250 °C for the second.

Compared with `Cn1nnc(-c2cccnc2)n1`, `Nc1nc(C#Cc2ccccc2)nc2nc(-c3ccco3)nn12` is higher in melting point: 108 to 110 °C for the first, greater than 280 °C for the second.

First: O=C1CN(S(=O)(=O)c2ccccc2)c2ccccc2N1
Second: O=C(O)C(CCc1ccccc1)(CCc1ccccc1)C(=O)O
The melting point of the first is higher: 183 to 185 °C for the first, 168 to 172 °C for the second.

Compared with `CCCC1C(=O)N(S(C)(=O)=O)C2CCN(S(C)(=O)=O)C12` (configuration not stated), `C=C1CCC2C3CCC4CC(OC(C)=O)CCC4(C)C3C(=O)CC12C` (configuration not stated) is lower in melting point: 205 to 208 °C for the first, 140 to 141 °C for the second.

First: CCOC(=O)c1cccc(OP(=O)(CCN2CCCNc3c2c(=O)c3=O)Oc2cccc(C(=O)OCC)c2)c1
Second: CCc1nc2c(cnn2CC)c(NC2CCOCC2)c1CNC(=O)c1cccc(C(=O)NCc2ccc(F)c(-c3cccc(CN4CCN(C(C)C)CC4)c3)c2)c1
The melting point of the first is lower: 116 to 117 °C for the first, 165 to 169 °C for the second.

Compared with `CCOC(=O)C(=Cc1cscc1OC)N=[N+]=[N-]`, `COc1cccc(OC)c1-c1ccc(C[C@H](NC(=O)c2c(Cl)ccc(-c3c(C)noc3C)c2Cl)C(=O)O)cc1` is higher in melting point: 88 to 90 °C for the first, 145 °C for the second.

First: O=C(Nc1cc(Cl)cc(Cl)c1)c1ccccc1SSc1ccccc1C(=O)Nc1cc(Cl)cc(Cl)c1
Second: O=S1(=O)c2ccccc2C(c2ccccc2)N1CCN1CCC(Cc2c[nH]c3ccc(F)cc23)CC1 (configuration not stated)
The melting point of the first is higher: 235 to 236 °C for the first, 175 °C for the second.

First: CCCCCC(Oc1ccc(C2=CCCCCCC2)cc1)C(=O)O (configuration not stated)
Second: O=C(Cc1ccc(I)cc1)NC[C@H]1CCCN1CCF
The melting point of the first is lower: 57 to 60 °C for the first, 96 °C for the second.

Compared with `Cc1nc(Cl)c([N+](=O)[O-])c(Cl)n1`, `C[C@@H]1Nc2nc(Cl)ccc2NC1=O` is higher in melting point: 42 to 44 °C for the first, 236 to 237 °C for the second.

Compared with `O=S1(=O)NCNc2c(Cl)cc(Cl)cc21`, `CCCCC1(O)c2cc(NC(=O)CC(C)(C)C)c(C)c(C)c2OC1(C)C` (configuration not stated) is higher in melting point: 149 to 151 °C for the first, 161 to 162 °C for the second.
